Measurements reported in ChEMBL document CHEMBL3137381, “MMV Box Onchocerca lienalis screening set”.

Tests used:
Assay type in all cases: functional
Onchocerca lienalis [1] = experiment: MMV: Percent motility assay at a compound concentration of 7.8e-7 M. Activity score legend: 3: Active, 2: Moderately active; 1: Inactive, 0: Toxic; conditions: at 0.78 µM
Onchocerca lienalis [2] = experiment: MMV: Percent motility assay at a compound concentration of 3.1e-6 M. Activity score legend: 3: Active, 2: Moderately active; 1: Inactive, 0: Toxic; conditions: at 3.1 µM
Onchocerca lienalis [3] = experiment: MMV: Percent motility assay at a compound concentration of 1.9e-7 M. Activity score legend: 3: Active, 2: Moderately active; 1: Inactive, 0: Toxic; conditions: at 0.19 µM
Onchocerca lienalis [4] = experiment: MMV: Percent motility assay at a compound concentration of 1.25e-5 M. Activity score legend: 3: Active, 2: Moderately active; 1: Inactive, 0: Toxic; conditions: at 12.5 µM

Row | SMILES | Motility (Onchocerca lienalis [1]) | Motility (Onchocerca lienalis [2]) | Motility (Onchocerca lienalis [3]) | Motility (Onchocerca lienalis [4])
1 | O=C(Nc1ccc(Cl)c(Cl)c1)Nc1ccc(Cl)c(Cl)c1 | 100% | 100% | 100% | 100%
2 | N=c1n(CCN2CCCCC2)c2ccccc2n1CC(=O)c1ccc(Cl)c(Cl)c1 | 100% | 100% | 100% | 100%
3 | Nc1nc(Nc2cccc(F)c2)nc2ccccc12 | 100% | 100% | 100% | 100%
4 | COc1ccc(/C=C2/SC(=Nc3ccccc3)NC2=O)cc1 | 100% | 100% | 100% | 100%
5 | COc1ccc(-c2nc(N3CCN(C(=O)C4CCCCC4)CC3)c3c4c(sc3n2)CCCC4)cc1 | 100% | 100% | 100% | 100%
6 | O=C(NC1CCN(Cc2ccccc2)CC1)c1cc2nc(-c3ccc(Cl)s3)cc(C(F)(F)F)n2n1 | 100% | 100% | 100% | 100%
7 | Cc1sc(NC(=O)c2ccccc2)c(C(c2cccs2)N2CCN(c3ccccc3)CC2)c1C (configuration not stated) | 100% | 100% | 100% | 100%
8 | COc1cc(C(=O)Nc2nc3c(cc4c5c(cccc53)CC4)s2)cc(OC)c1OC | 100% | 100% | 100% | 100%
9 | COc1ccc(CCN2C(=O)c3[nH]nc(-c4cc(Cl)c(C)cc4O)c3C2c2ccccc2F)cc1 (configuration not stated) | 100% | 100% | 100% | 100%
10 | N#Cc1nc(Cc2cccc3ccccc23)oc1N1CCN(C(c2ccccc2)c2ccccc2)CC1 | 100% | 100% | 100% | 100%
11 | CCOc1ccc(N2C(N)=NC(N)=NC2(C)C)cc1.Cl | 100% | 100% | 100% | 100%
12 | COc1cccc(Nc2nc(N)c3ccccc3n2)c1.Cl | 100% | 100% | 100% | 100%
13 | Cc1ccc(C(=O)c2oc3ccc4c(C)cc(=O)oc4c3c2C)cc1 | 100% | 100% | 100% | 100%
14 | CCCCCCc1cc2cc(-c3csc(C=Cc4ccccc4)n3)c(=O)oc2cc1O | 100% | 100% | 100% | 100%
15 | O=C(CCl)NCCOc1ccc(Cl)cc1Cl | 100% | 100% | 100% | 100%
16 | Oc1ccc(-c2nc(-c3ccc4oc5ccc(-c6[nH]c(-c7ccc(O)cc7)nc6-c6ccccc6)cc5c4c3)c(-c3ccccc3)[nH]2)cc1 | 100% | 100% | 100% | 100%
17 | COc1ccc(CNC(=O)c2cc3c(=O)n4ccccc4nc3n(CCc3ccccc3)c2=N)cc1 | 100% | 100% | 100% | 100%
18 | COc1ccc(CCn2c(=N)c(C(=O)NCc3cccnc3)cc3c(=O)n4cccc(C)c4nc32)cc1 | 100% | 100% | 100% | 100%
19 | Cl.Cn1c(=O)n(C)c2cc(CNCCNc3ccnc4cc(Cl)ccc34)ccc21 | 100% | 100% | 100% | 100%

Row | SMILES | Motility (Onchocerca lienalis [1]) | Motility (Onchocerca lienalis [2]) | Motility (Onchocerca lienalis [3]) | Motility (Onchocerca lienalis [4])
20 | CCOc1ccc2nc(C)cc(Nc3ccc(N(C)C)cc3)c2c1.Cl | 100% | 100% | 100% | 100%
21 | COc1ccc(Nc2cc(C)nc(NCc3ccccc3)n2)cc1 | 100% | 100% | 100% | 66.66%
22 | COc1ccc(C=C2SC(Nc3ccc(F)cc3)=NC2=O)c(OC)c1 | 100% | 100% | 100% | 100%
23 | O=C1c2ccc3c4c(ccc(c24)C(=O)N1CCCCO)C(=O)N(CCCCO)C3=O | 100% | 100% | 100% | 100%
24 | O=C(Nc1ccc(-c2nc3cc(NC(=O)c4ccc(Cl)cc4)ccc3[nH]2)cc1)c1ccc(Cl)cc1 | 100% | 100% | 100% | 100%
25 | CCOC(=O)c1cnc2ccc(OC)cc2c1Nc1ccc(N2CCN(C)CC2)cc1 | 100% | 100% | 100% | 100%
26 | COc1ccccc1C(=O)ON=C(N)Cc1cccc2ccccc12 | 100% | 100% | 100% | 100%
27 | COc1ccc(C(=O)C(CCC(CNC(C)(C)C)C(=O)c2ccc(OC)cc2)CNC(C)(C)C)cc1 (configuration not stated) | 100% | 100% | 100% | 100%
28 | CN1C=C(c2ccc3ccccc3n2)C(c2c[nH]c3ccccc23)c2ccccc21 (configuration not stated) | 100% | 100% | 100% | 33.33%
29 | OC(CNC1CCCCC1)Cn1c2ccc(I)cc2c2cc(I)ccc21 (configuration not stated) | 100% | 100% | 100% | 100%
30 | COc1cc(CNCCc2ccc(Cl)cc2)cc(OC)c1O | 100% | 100% | 100% | 100%
31 | c1ccc(CNc2nc(Nc3ccccc3)nc3ccccc23)cc1 | 100% | 100% | 100% | 0%
32 | Oc1ccc(Br)cc1CN1CCN(Cc2ccc(Cl)cc2)CC1 | 100% | 100% | 100% | 100%
33 | CCOc1ccc2nc(C)cc(Nc3ccc(Br)cc3)c2c1 | 100% | 100% | 100% | 100%
34 | COc1cc2c3cc1Oc1c(OC)c(OC)cc4c1C(Cc1ccc(O)c(c1)Oc1ccc(cc1)CC3N(C)CC2)N(C)CC4.Cl (configuration not stated) | 100% | 100% | 100% | 100%
35 | CCOC(=O)c1cnc2ccc(OC)cc2c1NCc1ccccc1 | 100% | 100% | 100% | 100%
36 | CCOC(=O)C1=CN(C)C=C(C(=O)OCC)C1c1cc(Br)c(OCC)c(OC)c1 | 100% | 100% | 100% | 100%
37 | CC(C)(C)c1ccc(C2CC3=Nc4ccccc4N(C(=O)c4ccccc4Cl)C(c4ccc(F)cc4)C3=C(O)C2)cc1 (configuration not stated) | 100% | 100% | 100% | 100%
38 | CN1CCN(c2nc(Nc3ccc(O)cc3)nc3ccccc23)CC1.Cl | 100% | 100% | 100% | 100%
